According to patent US11254690B2, “PTEFb inhibiting macrocyclic compounds” (BAYER AKTIENGESELLSCHAFT, priority 2017, dated 2022):
Values joined by “and” are separate entries in the source; they are usually repeats but may differ in a detail not shown here. Identical values can stand only once.

Key:
[1] = biological target: T1, human PTEFb (CDK9/Cyclin T1) (Homo sapiens, UniProt P50750); assay: Surface Plasmon Resonance PTEFb; type: binding; settings: SPR, 37° C.; for Target residence time / residence time: 1/koff; for Target residence time / Dissociation rate constant koff / residence time / koff: * = arithmetic means; for Kd: * = arithmetic means of more than one value, read-out: Equilibrium dissociation constant KD; for Dissociation rate constant koff / koff: < = below what is resolvable; for residence time: read-out: Target residence time; for koff: read-out: Dissociation rate constant koff
T1 construct: purchased ProQinase, Freiburg, Germany
T1 sequence (P50750 whole entry): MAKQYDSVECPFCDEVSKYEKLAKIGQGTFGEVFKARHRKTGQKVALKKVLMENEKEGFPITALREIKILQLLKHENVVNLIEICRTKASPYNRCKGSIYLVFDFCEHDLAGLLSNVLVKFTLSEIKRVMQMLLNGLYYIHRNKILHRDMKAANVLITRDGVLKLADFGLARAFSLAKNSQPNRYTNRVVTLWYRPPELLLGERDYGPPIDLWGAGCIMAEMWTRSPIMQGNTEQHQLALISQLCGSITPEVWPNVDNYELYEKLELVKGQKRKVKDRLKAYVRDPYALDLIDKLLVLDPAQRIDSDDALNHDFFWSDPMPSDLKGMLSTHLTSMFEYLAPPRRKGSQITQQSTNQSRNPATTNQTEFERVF
T1 sequence (O60563 whole entry partner): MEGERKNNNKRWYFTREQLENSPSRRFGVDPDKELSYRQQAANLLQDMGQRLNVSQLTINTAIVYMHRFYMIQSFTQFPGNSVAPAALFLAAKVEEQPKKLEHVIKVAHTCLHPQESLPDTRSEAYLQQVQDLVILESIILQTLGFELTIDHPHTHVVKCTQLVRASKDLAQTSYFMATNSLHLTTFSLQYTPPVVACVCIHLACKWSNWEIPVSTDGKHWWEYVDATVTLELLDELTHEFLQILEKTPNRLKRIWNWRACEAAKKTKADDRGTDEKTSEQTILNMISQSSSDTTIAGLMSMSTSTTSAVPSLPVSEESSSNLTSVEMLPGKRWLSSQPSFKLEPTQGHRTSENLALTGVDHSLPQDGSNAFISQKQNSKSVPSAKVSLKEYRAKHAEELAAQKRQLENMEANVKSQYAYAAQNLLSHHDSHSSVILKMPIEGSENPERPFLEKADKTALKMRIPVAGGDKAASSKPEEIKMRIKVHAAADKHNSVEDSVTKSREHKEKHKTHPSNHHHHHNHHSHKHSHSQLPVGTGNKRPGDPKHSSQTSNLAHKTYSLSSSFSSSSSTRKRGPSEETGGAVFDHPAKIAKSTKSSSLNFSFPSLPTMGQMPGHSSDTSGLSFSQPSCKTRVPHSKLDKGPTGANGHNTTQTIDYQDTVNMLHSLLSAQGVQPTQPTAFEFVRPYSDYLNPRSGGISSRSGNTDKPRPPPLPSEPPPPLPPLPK
Description: 8. Surface Plasmon Resonance PTEFb
The term “surface plasmon resonance”, as used herein, refers to an optical phenomenon that allows for the analysis of the reversible associations of biological molecules in real time within a biosensor matrix, for example using the Biacore® system (GE Healthcare Biosciences, Uppsala, Sweden). Biacore® uses the optical properties of surface plasmon resonance (SPR) to detect alterations in the refractive index of a buffer, which changes as molecules in solution interact with the target immobilized on the surface. In brief, proteins are covalently bound to the dextran matrix at a known concentration and a ligand for the protein is injected through the dextran matrix. Near infrared light, directed onto the opposite side of the sensor chip surface is reflected and also induces an evanescent wave in the gold film, which in turn, causes an intensity dip in the reflected light at a particular angle known as the resonance angle. If the refractive index of the sensor chip surface is altered (e.g. by compound binding to the bound protein) a shift occurs in the resonance angle. This angle shift can be measured.
The term “KD”, as used herein, is intended to refer to the equilibrium dissociation constant of a particular compound/target protein complex.
The term “koff”, as used herein, is intended to refer to the off-rate, i.e. the dissociation rate constant of a particular compound/target protein complex.
The term “target residence time”, as used herein, is intended to refer to the inverse of the rate of dissociation rate constant (1/koff) of a particular compound/target protein complex.
The ability of the compounds according to the invention to bind human PTEFb may be determined using surface plasmon resonance (SPR). KD values and koff values may be measured using a Biacore® T200 instrument (GE Healthcare, Uppsala, Sweden).
For SPR measurements, recombinant human PTEFb (CDK9/Cyclin T1 recombinant human active protein kinase purchased from ProQinase, Freiburg, Germany) is immobilized using standard amine coupling (Johnsson B et al, Anal Biochem. 1991 Nov. 1; 198(2):268-77). Briefly, carboxymethylated dextran biosensor chips (CM7, GE Healthcare) are activated with N-ethyl-N′-(3-dimethylaminopropyl)-carbodiimide hydrochloride (EDC) and N-hydroxysuccinimide (NHS) according to the supplier's instructions. Human PTEFb is diluted in 1×HBS-EP+ (GE Healthcare) and injected on the activated chip surface. Subsequently, a 1:1 solution of 1 M ethanolamine-HCl (GE Healthcare) and 1×HBS-EP is injected to block unreacted groups, resulting in approximately 4000 response units (RU) of immobilized protein. A reference surface is generated by treatment with NHS-EDC and ethanolamine-HCl. Compounds are dissolved in 100% dimethylsulfoxide (DMSO, Sigma-Aldrich, Germany) to a concentration of 10 mM and subsequently diluted in running buffer (1×HBS-EP+pH 7.4 [generated from HBS-EP+ Buffer 10× (GE Healthcare): 0.1 M HEPES, 1.5 M NaCl, 30 mM EDTA and 0.5% v/v Surfactant P20], 1% v/v DMSO). For kinetic measurements, serial dilutions of compound (0.78 nM up to 25 nM) are injected over immobilized protein. Binding kinetics is measured at 37° C. with a flow rate of 100 μl/min in running buffer. Compound concentrations are injected for 70 s followed by a dissociation time of 1100 s. The resulting sensorgrams are double-referenced against the reference surface as well as against blank injections.
The double-referenced sensorgrams are fit to a simple reversible Langmuir 1:1 reaction mechanism as implemented in the Biacore® T200 evaluation software 2.0 (GE Healthcare). In cases were full compound dissociation has not occurred at the end of the dissociation phase, the Rmax parameter (response at saturation) is fit as local variable. In all other cases, Rmax is fit as global variable.

B16F10 cells = assay: Proliferation assay, B16F10; type: cell-based; settings: Mus musculus, B16-F10, 96 h; 4 days, crystal violet; read-out: Inhibition of B16F10 cell proliferation IC50
Method: Cultivated tumour cells (HeLa, human cervical tumour cells, ATCC CCL-2; NCI-H460, human non-small cell lung carcinoma cells, ATCC HTB-177; DU 145, hormone-independent human prostate carcinoma cells, ATCC HTB-81; HeLa-MaTu-ADR, multidrug-resistant human cervical carcinoma cells, EPO-GmbH Berlin; Caco-2, human colorectal carcinoma cells, ATCC HTB-37; B16F10, mouse melanoma cells, ATCC CRL-6475) were plated at a density of 5,000 cells/well (DU145, HeLa-MaTu-ADR), 3,000 cells/well (NCI-H460, HeLa), 1,500 cells/well (Caco-2), or 1,000 cells/well (B16F10) in a 96-well multititer plate in 200 μL of their respective growth medium supplemented 10% fetal calf serum. After 24 hours, the cells of one plate (zero-point plate) were stained with crystal violet (see below), while the medium of the other plates was supplemented with the test substances in various concentrations (0 μM, as well as in the range of 0.0001-10 μM; the final concentration of the solvent dimethyl sulfoxide was adjusted to 0.1%) using a Hewlett-Packard HP D300 Digital Dispenser. The cells were incubated for 4 days in the presence of test substances. Cell proliferation was determined by staining the cells with crystal violet: the cells were fixed by adding 20 μl/measuring point of an 11% glutaric aldehyde solution for 15 minutes at room temperature. After three washing cycles of the fixed cells with water, the plates were dried at room temperature. The cells were stained by adding 100 μl/measuring point of a 0.1% crystal violet solution (pH 3.0). After three washing cycles of the stained cells with water, the plates were dried at room temperature. The dye was dissolved by adding 100 μl/measuring point of a 10% acetic acid solution. The extinction was determined by photometry at a wavelength of 595 nm. The change of cell number, in percent, was calculated by normalization of the measured values to the extinction values of the zero-point plate (=0%) and the extinction of the untreated ([…]) cells (=100%). The IC50 values (inhibitory concentration at 50% of maximal effect) were determined by means of a 4 parameter fit. A2780 human ovarian carcinoma cells (ECACC #93112519) and non-adherent MOLM-13 human acute myeloid leukemia cells (DSMZ ACC 554) were seeded at a density of 3,000 cell/well (A2780) or 5,000 cells/well (MOLM-13) in a 96-well multititer plate in 150 μL of growth medium supplemented 10% fetal calf serum. After 24 hours, cell viability of one plate (zero-point plate) was determined with the Cell Titre-Glo Luminescent Cell Viability Assay (Promega), while the medium of the other plates was supplemented with the test substances in various concentrations (0 μM, as well as in the range of 0.0001-10 μM; the final concentration of the solvent dimethyl sulfoxide was adjusted to 0.1%) using a Hewlett-Packard HP D300 Digital Dispenser. Cell viability was assessed after 72-hour exposure with the Cell Titre-Glo Luminescent Cell Viability Assay (Promega). IC50 values (inhibitory concentration at 50% of maximal effect) were determined by means of a 4 parameter fit on measurement data which were normalized to vehicle (DMSO) treated cells (=100%) and measurement readings taken immediately before compound exposure (=0%).

Row | SMILES | Kd [1] | IC50 (B16F10 cells) [nM] | further results
1 | CC1CCCCOc2cc(ccc2F)-c2cc(ncc2F)Nc2cc(CS(C)(=N)=O)cc(n2)O1 (single isomer, unassigned) [Example 22, 3,21-difluoro-14-methyl-10-[(S-methylsulfonimidoyl)methyl]-13,19-dioxa-5,7,25-triazatetracyclo[18.3.1.1^2,6.1^8,12]hexacosa-1(24),2(26),3,5,8(25),9,11,20,22-nonaene] | 0.19 nM |  | Target residence time [1]: 43* min; Dissociation rate constant koff [1]: 3.9E−4* 1/s
2 | CS(=N)(=O)Cc1cc2cc(c1)OCCCCOc1c(F)ccc(c1F)-c1nc(ncc1F)N2 (racemic) [Example 8, (rac)-3,20,23-trifluoro-10-[(S-methylsulfonimidoyl)methyl]-13,18-dioxa-5,7,25-triazatetracyclo[17.3.1.1^2,6.1^8,12]pentacosa-1(23),2(25),3,5,8(24),9,11,19,21-nonaene] |  | 224 | 
3 | CS(=N)(=O)Cc1cc2cc(c1)OCCCCCOc1cc(ccc1F)-c1nc(ncc1F)N2 (racemic) [Example 6, (rac)-3,21-difluoro-10-[(S-methylsulfonimidoyl)methyl]-13,19-dioxa-5,7,26-triazatetracyclo[18.3.1.1^2,6.1^8,12]hexacosa-1(24),2(26),3,5,8(25),9,11,20,22-nonaene] |  | 171 | 
4 | CC1CCCOc2cc(ccc2F)-c2cc(ncc2F)Nc2cc(CS(C)(=N)=O)cc(n2)O1 (single isomer, unassigned) [Example 17, 3,20-difluoro-14-methyl-10-[(S-methylsulfonimidoyl)methyl]-13,18-dioxa-5,7,24-triazatetracyclo[17.3.1.1^2,6.1^8,12]pentacosa-1(23),2(25),3,5,8(24),9,11,19,21-nonaene] | 0.077 nM |  | residence time [1]: > 208 min; koff [1]: < 8e-05 s⁻¹
5 | CC1CCCOc2cc(ccc2F)-c2cc(ncc2F)Nc2cc(CS(C)(=N)=O)cc(n2)O1 (single isomer, unassigned) [Example 16, 3,20-difluoro-14-methyl-10-[(S-methylsulfonimidoyl)methyl]-13,18-dioxa-5,7,24-triazatetracyclo[17.3.1.1^2,6.1^8,12]pentacosa-1(23),2(25),3,5,8(24),9,11,19,21-nonaene] |  |  | Target residence time [1]: > 208 min and 131 min; Dissociation rate constant koff [1]: < 8e-05 s⁻¹ and 0.00013 s⁻¹
6 | CC(C)(C)OC(=O)N=S(C)(=O)Cc1cc2cc(c1)OCCCCOc1cc(ccc1F)-c1nc(ncc1F)N2 (racemic) [Example 3, (rac)-tert-butyl [{[3,20-difluoro-13,18-dioxa-5,7,25-triazatetracyclo[17.3.1.1^2,6.1^8,12]pentacosa-1(23),2(25),3,5,8(24),9,11,19,21-nonaen-10-yl]methyl}(methyl)oxido-λ^6-sulfanylidene]carbamate] |  | 270 | 
7 | CC(C)(C)OC(=O)N=S(C)(=O)Cc1cc2cc(c1)OCCCCCOc1cc(ccc1F)-c1nc(ncc1F)N2 (racemic) [Example 5, (rac)-tert-butyl [{[3,21-difluoro-13,19-dioxa-5,7,26-triazatetracyclo[18.3.1.1^2,6.1^8,12]hexacosa-1(24),2(26),3,5,8(25),9,11,20,22-nonaen-10-yl]methyl}(methyl)oxido-λ^6-sulfanylidene]carbamate] |  | 993 | 
8 | CC1CCCCOc2cc(ccc2F)-c2cc(ncc2F)Nc2cc(CS(C)(=N)=O)cc(n2)O1 (single isomer, unassigned) [Example 21, 3,21-difluoro-14-methyl-10-[(S-methylsulfonimidoyl)methyl]-13,19-dioxa-5,7,25-triazatetracyclo[18.3.1.1^2,6.1^8,12]hexacosa-1(24),2(26),3,5,8(25),9,11,20,22-nonaene] | 1 nM |  | Target residence time [1]: 10* min; Dissociation rate constant koff [1]: 1.6E−3* 1/s

Continued, in another order:

Row | Kd [1] | IC50 (B16F10 cells) [nM] | SMILES | further results
9 | 1.2 nM | 110 | CS(=N)(=O)Cc1cc2nc(c1)OCCCCOc1cc(ccc1F)-c1cc(ncc1F)N2 (racemic) [Example 2, (rac)-3,20-difluoro-10-[(S-methylsulfonimidoyl)methyl]-13,18-dioxa-5,7,24-triazatetracyclo[17.3.1.1^2,6.1^8,12]pentacosa-1(23),2(25),3,5,8(24),9,11,19,21-nonaene] | residence time [1]: 75 min; koff [1]: 0.00022 s⁻¹
10 |  | 209 | CS(=N)(=O)Cc1cc2cc(c1)OCCCOc1cc(ccc1F)-c1nc(ncc1F)N2 (racemic) [Example 10, (rac)-3,19-difluoro-10-[(S-methylsulfonimidoyl)methyl]-13,17-dioxa-5,7,24-triazatetracyclo[16.3.1.1^2,6.1^8,12]tetracosa-1(22),2(24),3,5,8(23),9,11,18,20-nonaene] | 
11 | 0.092 nM and 0.091 nM and 0.12 nM |  | CC1CCCOc2cc(ccc2F)-c2cc(ncc2F)Nc2cc(CS(C)(=O)=O)cc(n2)O1 (racemic) [Example 28, 3,20-difluoro-14-methyl-10-[(methylsulfonyl)methyl]-13,18-dioxa-5,7,24-triazatetracyclo[17.3.1.1^2,6.1^8,12]pentacosa-1(23),2(25),3,5,8(24),9,11,19,21-nonaene] | 
